Data as given in patent publication US5698575A, “Chromone compounds, pharmaceutical compositions containing the same, and use of the same” (Kureha Chemical Industry Co., Ltd., priority 1995, dated 1997).

Tests used:
Crj:CD-1(ICR) mice = experiment: Acute toxicity of chromone derivative, oral, mice; format: in vivo, mouse; details: male mice, 500 mg/kg orally
Procedure: (§1) The acute toxicity of the chromone derivative of the present invention was evaluated, for Crj:CD-1(ICR) mice (male; 6 weeks old) and Wistar rat (male; 6 weeks old). […] In the experiments as above, two animals were used for each group.

Wistar rat = experiment: Acute toxicity of chromone derivative, oral, rats; format: in vivo; details: male rats, 500 mg/kg orally
Procedure: as §1

[1] = tested on: Mouse melanoma (B16-BL6) cells; experiment: Antitumor activity to mouse melanoma-cells-implanted mouse; format: in vivo; details: 100 mg/kg orally once a day for 13 days, C57BL/6N mice
Procedure: Mouse melanoma (B16-BL6) cells were subcutaneously implanted in the amount 1×10^6 cells in C57BL/6N mice (6 weeks old, male) at the axillary fossa. From the day after the implantation, 2-pyrrolylthiochromone was orally administered once a day for 13 days. The composition to be administered was preparedby dissolving 2-pyrrolylthiochromone powder in sesame oil, and administered at the dose of 100 mg of the compound per 1 kg of the mouse body weight. The amount of sesame oil administered was 10 ml/kg of the mouse body weight. To the control group, only sesame oil was administered. At the next day of the last administration day, the mice were sacrificed, and the weight of the tumor was measured. For the control group where the present compound was not administered, five mice were used, whereas 6 mice were used for the group where the present compound was administered.

| SMILES | change in general state and body weight in comparison with the control group (Crj:CD-1(ICR) mice; observed for 7 days) | remarkable toxicity (Crj:CD-1(ICR) mice; observed for seven days) | change in general state and body weight in comparison with the control group (Wistar rat; observed for 7 days) | remarkable toxicity (Wistar rat; observed for seven days) | decrease in the body weight due to the administration [1] | inhibitory activity for the tumor growth (tumor weight) in comparison with the control group ([1]; B16-BL6 subcutaneous, FIG. 3) [%] |
| --- | --- | --- | --- | --- | --- | --- |
| COc1cc(OC)c2c(=O)cc(-n3cnc4ccccc43)oc2c1 [2-benzimidazolyl-5,7-dimethoxychromone] | no change was observed | no remarkable toxicity | no change was observed | no remarkable toxicity | – | – |
| O=c1cc(-n2cccc2)sc2ccccc12 [2-pyrrolylthiochromone] | – | – | – | – | not observed | 36.7 |
